Measurements from ChEMBL document CHEMBL1129317, “Novel selective and partial agonists of 5-HT3 receptors. Part 1. Synthesis and biological evaluation of piperazinopyrrolothienopyrazines” (J Med Chem, 1996).

How the values were obtained:
[1] = biological target: T1, 5-hydroxytryptamine receptor 1A (Homo sapiens, UniProt P08908); assay: Binding affinity for 5-hydroxytryptamine 1A receptor
T1 sequence (P08908 whole entry): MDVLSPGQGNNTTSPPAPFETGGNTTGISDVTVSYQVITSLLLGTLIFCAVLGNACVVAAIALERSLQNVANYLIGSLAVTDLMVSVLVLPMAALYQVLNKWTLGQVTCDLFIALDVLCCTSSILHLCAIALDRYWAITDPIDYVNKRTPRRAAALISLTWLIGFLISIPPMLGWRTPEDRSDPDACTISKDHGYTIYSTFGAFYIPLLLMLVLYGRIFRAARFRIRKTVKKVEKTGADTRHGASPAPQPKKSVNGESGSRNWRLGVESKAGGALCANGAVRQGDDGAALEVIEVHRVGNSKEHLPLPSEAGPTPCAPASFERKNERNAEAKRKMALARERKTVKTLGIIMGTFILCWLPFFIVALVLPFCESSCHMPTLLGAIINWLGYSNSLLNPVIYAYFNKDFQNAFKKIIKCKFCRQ

[2] = biological target: 5-hydroxytryptamine receptor 1D (Sus scrofa, UniProt P79400); assay: Binding affinity for 5-hydroxytryptamine 1D receptor
Sequence of 5-hydroxytryptamine receptor 1D (P79400 whole entry): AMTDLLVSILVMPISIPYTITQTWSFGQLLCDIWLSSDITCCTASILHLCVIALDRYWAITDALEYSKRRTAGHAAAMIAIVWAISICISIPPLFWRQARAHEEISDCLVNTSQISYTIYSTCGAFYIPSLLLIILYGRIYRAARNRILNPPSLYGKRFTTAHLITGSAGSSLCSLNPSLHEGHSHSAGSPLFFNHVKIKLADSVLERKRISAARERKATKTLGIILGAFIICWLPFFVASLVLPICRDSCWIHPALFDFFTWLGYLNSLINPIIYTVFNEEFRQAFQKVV

[3] = biological target: T2, 5-hydroxytryptamine receptor 2C (Homo sapiens, UniProt P28335); assay: Binding affinity towards 5-hydroxytryptamine 2C receptor
T2 sequence (P28335 whole entry): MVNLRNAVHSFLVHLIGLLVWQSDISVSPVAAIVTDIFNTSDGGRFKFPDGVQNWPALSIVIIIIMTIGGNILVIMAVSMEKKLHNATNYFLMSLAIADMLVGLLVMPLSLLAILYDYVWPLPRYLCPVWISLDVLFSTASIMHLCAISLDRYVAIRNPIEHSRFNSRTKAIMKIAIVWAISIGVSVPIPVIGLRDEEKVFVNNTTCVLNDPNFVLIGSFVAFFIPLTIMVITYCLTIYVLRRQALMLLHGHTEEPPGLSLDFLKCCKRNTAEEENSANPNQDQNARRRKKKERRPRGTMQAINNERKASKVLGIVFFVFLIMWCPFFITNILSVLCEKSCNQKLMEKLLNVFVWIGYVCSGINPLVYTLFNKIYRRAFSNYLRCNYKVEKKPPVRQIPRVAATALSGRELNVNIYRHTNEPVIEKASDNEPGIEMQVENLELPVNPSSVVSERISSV

[4] = biological target: T3, Serotonin 3 (5-HT3) receptor (Rattus norvegicus, UniProt P35563+Q9JJ16); assay: Binding affinity towards 5-hydroxytryptamine 3 receptor; format: protein-complex assay
T3 sequence (P35563 whole entry): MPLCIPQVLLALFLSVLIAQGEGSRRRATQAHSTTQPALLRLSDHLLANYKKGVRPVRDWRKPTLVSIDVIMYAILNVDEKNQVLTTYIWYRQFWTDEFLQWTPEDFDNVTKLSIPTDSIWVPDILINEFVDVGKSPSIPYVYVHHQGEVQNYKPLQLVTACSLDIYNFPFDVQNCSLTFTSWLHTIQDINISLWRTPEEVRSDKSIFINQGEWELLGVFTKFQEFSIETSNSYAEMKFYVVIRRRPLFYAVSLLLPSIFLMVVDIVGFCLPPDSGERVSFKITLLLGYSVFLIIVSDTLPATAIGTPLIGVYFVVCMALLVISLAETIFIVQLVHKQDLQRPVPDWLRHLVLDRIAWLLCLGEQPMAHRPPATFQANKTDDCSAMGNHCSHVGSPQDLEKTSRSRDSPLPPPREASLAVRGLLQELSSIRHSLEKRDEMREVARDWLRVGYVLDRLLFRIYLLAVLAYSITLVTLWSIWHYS
T3 sequence (Q9JJ16 whole entry): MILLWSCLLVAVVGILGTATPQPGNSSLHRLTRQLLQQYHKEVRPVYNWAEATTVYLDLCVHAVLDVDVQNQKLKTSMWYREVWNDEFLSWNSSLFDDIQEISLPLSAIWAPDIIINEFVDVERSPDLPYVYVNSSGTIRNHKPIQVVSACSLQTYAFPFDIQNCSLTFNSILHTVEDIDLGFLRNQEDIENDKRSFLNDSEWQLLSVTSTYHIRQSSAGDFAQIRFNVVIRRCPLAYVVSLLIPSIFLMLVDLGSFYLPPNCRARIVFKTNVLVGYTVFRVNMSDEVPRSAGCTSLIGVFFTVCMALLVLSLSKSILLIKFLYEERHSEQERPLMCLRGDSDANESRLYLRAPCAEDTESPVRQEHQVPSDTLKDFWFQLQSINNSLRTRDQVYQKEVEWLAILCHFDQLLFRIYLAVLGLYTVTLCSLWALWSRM

[5] = biological target: 5-hydroxytryptamine receptor 1B (Rattus norvegicus, UniProt P28564); assay: Binding affinity for 5-hydroxytryptamine 1B receptor
Sequence of 5-hydroxytryptamine receptor 1B (P28564 whole entry): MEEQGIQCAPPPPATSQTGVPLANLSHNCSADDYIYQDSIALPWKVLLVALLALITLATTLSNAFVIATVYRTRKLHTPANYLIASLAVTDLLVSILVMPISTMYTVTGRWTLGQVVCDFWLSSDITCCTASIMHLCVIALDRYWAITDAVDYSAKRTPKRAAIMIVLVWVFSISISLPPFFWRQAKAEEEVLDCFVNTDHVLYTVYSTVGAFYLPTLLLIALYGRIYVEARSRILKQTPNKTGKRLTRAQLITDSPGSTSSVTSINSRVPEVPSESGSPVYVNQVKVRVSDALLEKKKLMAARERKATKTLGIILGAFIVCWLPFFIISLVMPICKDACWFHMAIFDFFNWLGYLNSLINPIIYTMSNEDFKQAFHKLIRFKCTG

[6] = biological target: 5-hydroxytryptamine receptor 2A (Bos taurus, UniProt Q75Z89); assay: Binding affinity towards 5-hydroxytryptamine 2A receptor
Sequence of 5-hydroxytryptamine receptor 2A (Q75Z89 whole entry): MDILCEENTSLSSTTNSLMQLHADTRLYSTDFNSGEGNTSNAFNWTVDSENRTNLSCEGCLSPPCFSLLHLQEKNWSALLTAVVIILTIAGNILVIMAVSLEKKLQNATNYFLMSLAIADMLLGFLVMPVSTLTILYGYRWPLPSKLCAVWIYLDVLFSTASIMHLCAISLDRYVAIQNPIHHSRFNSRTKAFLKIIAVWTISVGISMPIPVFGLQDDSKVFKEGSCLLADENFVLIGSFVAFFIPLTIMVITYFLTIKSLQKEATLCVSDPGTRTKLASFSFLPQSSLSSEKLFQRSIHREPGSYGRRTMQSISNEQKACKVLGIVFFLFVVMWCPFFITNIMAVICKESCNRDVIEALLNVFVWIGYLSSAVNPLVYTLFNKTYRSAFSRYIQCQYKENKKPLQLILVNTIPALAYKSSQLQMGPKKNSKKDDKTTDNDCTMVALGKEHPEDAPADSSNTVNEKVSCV

| Compound | IC50 [1] | IC50 [2] | IC50 [3] | IC50 [4] | IC50 [5] | IC50 [6] |
| --- | --- | --- | --- | --- | --- | --- |
| Clc1ccc(CN2CCN(c3nc4ccsc4n4cccc34)CC2)c(Cl)c1 | 0.661 µM | 3.09 µM | 0.851 µM | 0.0166 µM | 4.68 µM | 7.41 µM |
| c1ccc(-c2cc3nc(N4CCNCC4)c4cccn4c3s2)cc1 | – | 35.5 µM | 10 µM | 2.45 µM | > 100 µM | 302 µM |
| Clc1ccc(CN2CCN(c3nc4sccc4n4cccc34)CC2)cc1Cl | 10.2 µM | 257 µM | 8.71 µM | 1.17 µM | 33.9 µM | 191 µM |
| Clc1ccc(CN2CCN(c3nc4sccc4n4cccc34)CC2)c(Cl)c1 | 31.6 µM | 25.1 µM | 19.1 µM | 4.17 µM | 63.1 µM | 479 µM |
| c1ccc(N2CCN(c3nc4ccsc4n4cccc34)CC2)cc1 | > 100 µM | > 100 µM | > 100 µM | > 100 µM | – | > 100 µM |
| O=C(c1ccc(F)cc1)N1CCN(c2nc3ccsc3n3cccc23)CC1 | 102 µM | 129 µM | > 100 µM | 1050 µM | 112 µM | 151 µM |
| Fc1ccc(CN2CCN(c3nc4ccsc4n4cccc34)CC2)cc1 | 0.347 µM | 138 µM | 7.41 µM | 0.0214 µM | 14.5 µM | 22.4 µM |
| c1ccc2nc(N3CCNCC3)ccc2c1 [QUIPAZINE] | – | 3.72 µM | 0.0617 µM | – | 7.08 µM | 3.47 µM |
| O=C(CN1CCN(c2nc3ccsc3n3cccc23)CC1)N1CCCC1 | 0.407 µM | 251 µM | 8.32 µM | 1.48 µM | > 100 µM | 14.5 µM |
| Clc1ccc(C(c2ccccc2)N2CCN(c3nc4ccsc4n4cccc34)CC2)cc1 (centres undefined) | 204 µM | > 100 µM | 282 µM | 1.38 µM | > 100 µM | > 100 µM |
| c1cc2c(N3CCCCC3)nc3ccsc3n2c1 | 64.6 µM | > 100 µM | 57.5 µM | 72.4 µM | > 100 µM | > 100 µM |
| Fc1ccc(CN2CCN(Cc3nc4ccsc4n4cccc34)CC2)cc1 | 7.76 µM | 38 µM | 14.1 µM | 18.2 µM | 19.5 µM | 13.8 µM |
| C1=CCN(c2nc3ccsc3n3cccc23)CC1 | 457 µM | > 100 µM | > 100 µM | > 100 µM | – | 112 µM |
| c1cc2c(N3CCN(Cc4ccc5c(c4)OCO5)CC3)nc3ccsc3n2c1 | 0.263 µM | 36.3 µM | 0.457 µM | 0.00257 µM | 3.09 µM | 11 µM |
| Clc1ccc(CN2CCN(c3nc4ccsc4n4cccc34)CC2)cc1Cl | 1.35 µM | 44.7 µM | 3.89 µM | 2.29 µM | 4.27 µM | 17.4 µM |
| C(=C\c1ccccc1)/CN1CCN(c2nc3ccsc3n3cccc23)CC1 | 0.0832 µM | 105 µM | 0.708 µM | 0.2 µM | 0.646 µM | 0.851 µM |
| c1cc2c(N3CCOCC3)nc3ccsc3n2c1 | 32.4 µM | 93.3 µM | 41.7 µM | 20.9 µM | > 100 µM | 39.8 µM |
| Cc1sc2c(nc(N3CCN(Cc4ccccc4)CC3)c3cccn32)c1C | 126 µM | 525 µM | 155 µM | 3.63 µM | > 100 µM | 174 µM |
| c1ccc(C2CCN(c3nc4ccsc4n4cccc34)CC2)cc1 | > 100 µM | > 100 µM | > 100 µM | > 100 µM | > 100 µM | > 100 µM |
| c1ccc(CN2CCN(c3nc4scc(-c5ccccc5)c4n4cccc34)CC2)cc1 | 25.7 µM | 30.9 µM | 2.63 µM | 6.76 µM | 24 µM | 63.1 µM |
| CCOC(=O)CN1CCN(c2nc3ccsc3n3cccc23)CC1 | 0.257 µM | 100 µM | 61.7 µM | 4.07 µM | 0.676 µM | 70.8 µM |
| FC(F)(F)c1cccc(N2CCN(c3nc4scc(-c5ccccc5)c4n4cccc34)CC2)c1 | 17.8 µM | 35.5 µM | 1.07 µM | 2.95 µM | 19.1 µM | 87.1 µM |
| c1cc2c(N3CCN(Cc4ccc5c(c4)OCO5)CC3)nc3sccc3n2c1 | – | 20 µM | 2.57 µM | 0.00102 µM | 7.08 µM | 24.5 µM |

Continued, values first:

| IC50 [1] | IC50 [2] | IC50 [3] | IC50 [4] | IC50 [5] | IC50 [6] | Compound |
| --- | --- | --- | --- | --- | --- | --- |
| 0.0724 µM | 200 µM | 1.07 µM | 269 µM | 18.6 µM | 5.13 µM | FC(F)(F)c1ccccc1CCN1CCN(c2nc3ccsc3n3cccc23)CC1 |
| 0.0933 µM | 0.135 µM | 0.347 µM | 0.0603 µM | 1.1 µM | 1.07 µM | CCCN1CCN(c2nc3ccsc3n3cccc23)CC1 |
| 12.6 µM | 57.5 µM | 5.89 µM | 74.1 µM | 7.41 µM | 832 µM | FC(F)(F)c1cccc(N2CCN(c3nc4sccc4n4cccc34)CC2)c1 |
| > 100 µM | > 100 µM | 23.4 µM | 1740 µM | > 100 µM | > 100 µM | FC(F)(F)c1cccc(N2CCN(c3nc4sc(-c5ccccc5)cc4n4cccc34)CC2)c1 |
| 33.9 µM | 513 µM | > 100 µM | 204 µM | – | 123 µM | CCOC(=O)N1CCN(c2nc3ccsc3n3cccc23)CC1 |
| 0.12 µM | 0.38 µM | 0.17 µM | 0.00263 µM | 0.575 µM | 0.851 µM | C=CCN1CCN(c2nc3ccsc3n3cccc23)CC1 |
| 0.288 µM | 1.26 µM | 0.155 µM | 1.58 µM | – | 1.78 µM | FC(F)(F)c1cccc(N2CCN(c3nc4ccsc4n4cccc34)CC2)c1 |
| 43.7 µM | 275 µM | 72.4 µM | 97.7 µM | 70.8 µM | 447 µM | Fc1ccc(N2CCN(c3nc4ccsc4n4cccc34)CC2)cc1 |
| 0.0468 µM | 0.123 µM | – | 1.32 µM | 0.339 µM | 18.6 µM | CN1CCN(c2nc3cc(C(F)(F)F)ccc3n3cccc23)CC1 |
| 0.117 µM | 0.398 µM | 0.24 µM | 0.813 µM | 11.2 µM | 1.29 µM | CN1CCN(c2nc3ccsc3n3cccc23)CC1 |
| 15.5 µM | 60.3 µM | 2.19 µM | 21.4 µM | > 100 µM | 13.8 µM | CN1CCN(c2nc3sc(-c4ccccc4)cc3n3cccc23)CC1 |
| 0.0525 µM | 0.912 µM | – | 0.24 µM | – | 2.34 µM | CN1CCN(c2nc3sccc3n3cccc23)CC1 |
